According to PubChem BioAssay AID743340 (Broad Institute, 2014):
Inconclusive results are not listed. The source made the active and inactive calls.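 The calls were made as follows: active = compounds whose fitted AC50 for signal loss is at most twice the top valid dose tested; inconclusive = flat curve with 30 to 70% inhibition, or poor fit; inactive = the rest.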

target: Leucyl-cystinyl aminopeptidase (Mus musculus) (UniProt Q8C129); assay: inhibition of mouse IRAP aminopeptidase activity – biochemical, Leu-AMC fluorescence, cherry-picked samples, set 2, selectivity assay for ERAP1 modulator project, dose response (AID 743340); conditions: purified IRAP, Leu-AMC cleavage fluorescence, 1 h; at 5.6 µM (top of the series)
Sequence (Q8C129 whole entry, looked up): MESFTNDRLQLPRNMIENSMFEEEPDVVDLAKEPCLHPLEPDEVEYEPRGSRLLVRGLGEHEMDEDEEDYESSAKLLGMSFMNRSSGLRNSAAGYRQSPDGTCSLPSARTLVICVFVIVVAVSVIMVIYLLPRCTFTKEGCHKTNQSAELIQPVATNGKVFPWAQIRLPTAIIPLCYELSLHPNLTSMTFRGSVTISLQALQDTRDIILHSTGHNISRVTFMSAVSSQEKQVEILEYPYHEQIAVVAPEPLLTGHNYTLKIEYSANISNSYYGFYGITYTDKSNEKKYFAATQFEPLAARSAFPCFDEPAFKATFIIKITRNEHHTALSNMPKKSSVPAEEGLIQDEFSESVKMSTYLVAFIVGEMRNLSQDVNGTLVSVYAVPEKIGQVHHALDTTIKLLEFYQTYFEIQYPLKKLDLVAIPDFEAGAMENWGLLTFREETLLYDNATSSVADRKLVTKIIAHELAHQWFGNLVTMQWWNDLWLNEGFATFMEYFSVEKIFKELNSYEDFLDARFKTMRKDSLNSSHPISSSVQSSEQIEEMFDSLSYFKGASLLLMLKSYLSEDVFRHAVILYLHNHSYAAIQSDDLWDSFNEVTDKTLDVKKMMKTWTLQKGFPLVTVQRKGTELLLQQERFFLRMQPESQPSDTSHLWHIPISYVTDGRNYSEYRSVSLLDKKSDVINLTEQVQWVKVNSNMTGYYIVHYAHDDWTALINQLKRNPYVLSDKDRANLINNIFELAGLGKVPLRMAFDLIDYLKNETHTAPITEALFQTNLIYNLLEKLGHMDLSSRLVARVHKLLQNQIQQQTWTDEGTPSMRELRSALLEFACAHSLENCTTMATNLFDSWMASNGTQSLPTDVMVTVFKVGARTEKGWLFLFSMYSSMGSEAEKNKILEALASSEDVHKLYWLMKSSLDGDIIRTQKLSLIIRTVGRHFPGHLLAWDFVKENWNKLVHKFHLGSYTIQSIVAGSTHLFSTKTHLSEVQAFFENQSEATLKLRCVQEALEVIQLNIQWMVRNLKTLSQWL

Row | activity change, negative = inhibition | SMILES
1 | inactive | C[C@@H]1CCCCO[C@@H](CN(C)Cc2ccc3c(c2)OCO3)[C@@H](C)CN([C@@H](C)CO)C(=O)c2cc(NS(=O)(=O)c3ccccc3)ccc2O1

same assay, conditions: purified IRAP, Leu-AMC cleavage fluorescence, 1 h; at 11 µM (top of the series)

Row | SMILES | activity change, negative = inhibition
2 | O=C(Nc1ccc(C(F)(F)F)cc1)N1[C@@H]2CNC[C@H]1C2c1ccc(-c2ccncc2)cc1 (some centres not stated) | inactive
3 | CCC(=O)N(C)C[C@H]1Oc2ncc(C#Cc3ccncc3)cc2C(=O)N([C@H](C)CO)C[C@H]1C | inactive
4 | COc1ccc(C(=O)O)cc1S(=O)(=O)Nc1cc(C(F)(F)F)ccc1N1CCCCC1 | inactive
5 | Cc1ccc(-c2cc(C(=O)N3CCCC3)c3ccccc3n2)s1 | inactive
6 | C[C@@H]1CCCCO[C@H](CN(C)Cc2ccc(C(=O)O)cc2)[C@@H](C)CN([C@H](C)CO)C(=O)c2cc(NC(=O)Nc3ccc(C(F)(F)F)cc3)ccc2O1 | inactive
7 | O=C(C[C@H]1CC[C@@H]2[C@H](COC[C@@H](O)CN2C(=O)Nc2cccc(Cl)c2)O1)N1CCCCC1 | inactive
8 | C[C@H](CO)N1C[C@H](C)[C@H](CN(C)Cc2ccncc2)Oc2c(NC(=O)Nc3ccc(C(F)(F)F)cc3)cccc2C1=O | inactive
9 | C[C@H](CO)N1C[C@H](C)[C@H](CN(C)CC2CCCCC2)Oc2c(NC(=O)Nc3ccc(C(F)(F)F)cc3)cccc2C1=O | inactive
10 | Cc1ccc2nc3c(cc(C(=O)NCc4ccccc4)c(=N)n3CCCn3ccnc3)c(=O)n2c1 | inactive
11 | C[C@H](CO)N1C[C@H](C)[C@H](CN(C)Cc2ccc(C(=O)O)cc2)Oc2c(NC(=O)Nc3ccccc3)cccc2C1=O | inactive
12 | O=C(C[C@H]1CC[C@H]2[C@@H](COC[C@@H](O)CN2C(=O)Nc2cccc(Cl)c2)O1)N1CCCCC1 | inactive
13 | O=C(CSc1cn[nH]n1)Nc1cccc(C(=O)O)c1 | inactive

Continued, values first:

Row | activity change, negative = inhibition | SMILES
14 | inactive | CCCN(C)C[C@@H]1OCCCC[C@@H](C)Oc2ccc(NS(=O)(=O)c3ccccc3)cc2C(=O)N([C@H](C)CO)C[C@@H]1C
15 | inactive | C[C@@H]1CCCCO[C@@H](CN(C)Cc2ccc(C(=O)O)cc2)[C@H](C)CN([C@@H](C)CO)C(=O)c2cc(NS(=O)(=O)c3ccc(Cl)cc3)ccc2O1
16 | inactive | CCCN(C)C[C@@H]1OCCCC[C@@H](C)Oc2ccc(NS(=O)(=O)c3ccc(F)cc3)cc2C(=O)N([C@H](C)CO)C[C@@H]1C
17 | inactive | Cc1ccc(S(=O)(=O)Nc2ccc3c(c2)C(=O)N([C@@H](C)CO)C[C@H](C)[C@H](CN(C)C)OCCCC[C@@H](C)O3)cc1
18 | inactive | COc1ccc(CN(C)C[C@@H]2OCCCC[C@H](C)Oc3ccc(NS(=O)(=O)c4cccs4)cc3C(=O)N([C@H](C)CO)C[C@@H]2C)cc1
19 | inactive | C[C@@H]1CCCCO[C@H](CN(C)C)[C@H](C)CN([C@H](C)CO)C(=O)c2cc(NS(=O)(=O)c3ccc(Cl)cc3)ccc2O1
20 | inactive | C[C@@H]1CCCCO[C@@H](CN(C)C)[C@@H](C)CN([C@@H](C)CO)C(=O)c2cc(NS(=O)(=O)c3ccc(Cl)cc3)ccc2O1
21 | inactive | C[C@@H]1CCCCO[C@@H](CN(C)CC2CC2)[C@@H](C)CN([C@H](C)CO)C(=O)c2cc(NS(=O)(=O)c3ccc(Cl)cc3)ccc2O1
22 | inactive | COc1ccc(CN(C)C[C@H]2OCCCC[C@@H](C)Oc3ccc(NS(=O)(=O)c4cccs4)cc3C(=O)N([C@H](C)CO)C[C@H]2C)cc1
